The target of the experiment is P2Y12 receptor (Homo sapiens, UniProt Q9H244). The experiment in a line: [33P]2MeS-ADP binding to washed human platelet membranes (Assay 1). Set-up: the P2Y12 receptor, which is found on the surface of platelets; tissue Interstate Blood bank, Memphis, Tenn; host or cells: washed human platelets from platelet rich plasma. On the procedure: 1. Inhibition of [^33P]2MeS-ADP Binding to Washed Human Platelet Membranes. The ability of a test compound to bind to the P2Y12 receptor was evaluated in a platelet membrane binding assay. In this competitive binding assay, the test compound competed against a radiolabelled agonist for binding to the P2Y12 receptor, which is found on the surface of platelets. Inhibition of binding of the labeled material was measured and correlated to the amount and potency of the test compound. Data from this assay are presented in Table F. Platelet rich plasma (“PRP”) was obtained from the Interstate Blood bank, Memphis, Tenn. Platelet rich plasma was prepared from blood units collected in ACD ((prepared by (1) combining: 2.5 g sodium citrate (Sigma S-4641); 1.5 g citric acid (Sigma C-0706); and, 2.0 g dextrose (Sigma G-7528); (2) bringing pH to 4.5; and (3) adding water to bring volume to 100 mL) and using the light spin protocol; this protocol involves centrifugation at room temperature for approximately 20 minutes at speeds up to 160×g. Platelet rich plasma is supplied in units of approximately 200 ml. Each unit is distributed into four 50 mL polypropylene conical tubes for centrifugation. Blood from each donor is maintained separately.
The 50 mL tubes were centrifuged for 15 minutes at 1100 rpm in Sorvall RT6000D (with H1000B rotor). Internal centrifuge temperature was maintained at approximately room temperature (22-24° C.). This spin pelleted cellular components remaining from the PRP preparation.
The supernatant was decanted into fresh 50 mL tubes. To avoid carry over of cellular components following the room temperature centrifugation, approximately 5 mL of PRP was left in the tube and discarded. The tubes were capped and inverted 2-3 times and allowed to stand at room temperature for at least 15 minutes following inversion.
Optionally, a Coulter Counter may be used to count platelets from the resting samples during the resting phase. Normal human platelet counts are expected to range from 200,000 to 400,000 per μL of PRP supernatant.
The 50 mL tubes containing PRP supernatant were centrifuged for 15 minutes at 2300-2400 rpm to loosely pellet the platelets. The supernatant from this spin was decanted immediately into a clean cell culture bottle (Corning bottle) and saved in case further centrifugation was needed. The pellet of each tube was resuspended in 2-4 mL of Wash buffer (pH 6.5) (1 L prepared new daily—134 mM NaCl (Sigma S-5150); 3 mM KCl (Sigma P-9333); 1 mM CaCl2 (JT Baker 1311-01); 2 mM MgCl2 (Sigma M-2670); 5 mM glucose (EM 4074-2); 0.3 mM NaH2PO4 (Sigma S-9638)/12 mM NaHCO3 (JT Baker 3506-01); 5 mM HEPES pH 7.4 (Gibco 12379-012); 0.35% BSA (Sigma A-7906); 330 mg Heparin (bovine lung, Sigma H-4898); and 30 mL of ACD) by repeated gentle aspiration using disposable polypropylene sample pipettes.
Wash buffer (pH 6.5) was added to each tube to bring the volume to approximately 40 mL. Each tube was incubated for at least 15 minutes at 37° C.
The tubes were then centrifuged again for 15 minutes at 2300-2400 rpm to loosely pellet the platelets. The supernatant was decanted and discarded. The pellet was resuspended in 2-4 mL of Assay buffer (pH 7.4) (1 L volume—134 mM NaCl; 3 mM KCl; 1 mM CaCl2; 2 mM MgCl2; 5 mM glucose; 0.3 mM NaH2PO4/12 mM NaHCO3; 5 mM HEPES pH 7.4; and 0.35% BSA) by repeated aspiration using disposable polypropylene sample pipettes.
The pooled platelet preparation was counted using a Coulter Counter. […]

Setting [1] is: washed human platelet membranes, competition with [33P]2MeS-ADP.

The term inhibition denotes the relative decrease from the control value, in per cent. A higher inhibition goes with a strong effect. For orientation: IC50 means the concentration at which inhibition is half-maximal. A high value points to lower potency. A word on the Ki: it is the equilibrium dissociation constant of an inhibitor or competing ligand from its target.

Sequence of P2Y12 receptor (Q9H244 whole entry): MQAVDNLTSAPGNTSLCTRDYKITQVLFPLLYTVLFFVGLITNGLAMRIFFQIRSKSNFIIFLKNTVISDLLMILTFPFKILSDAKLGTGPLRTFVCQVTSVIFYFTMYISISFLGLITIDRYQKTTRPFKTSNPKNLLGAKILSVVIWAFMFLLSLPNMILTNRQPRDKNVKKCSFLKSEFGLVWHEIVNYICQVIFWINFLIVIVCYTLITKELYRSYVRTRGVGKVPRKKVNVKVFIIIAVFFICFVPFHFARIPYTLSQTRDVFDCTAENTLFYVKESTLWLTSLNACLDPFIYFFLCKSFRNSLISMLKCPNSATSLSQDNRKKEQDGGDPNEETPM

`CCc1cc2c(N3CCN(C(=O)Cc4ccccc4)CC3)nc(SCc3ccco3)nc2s1` [Example 86, 6-ethyl-2-[(2-furylmethyl)thio]-4-[4-(phenylacetyl)piperazin-1-yl]thieno[2,3-d]pyrimidine] registered an inhibition at 10 µM (at highest concentration tested, 10 μM) of 52.9%. Further, under setting [1], the IC50 came to 7.93 µM and the inhibition constant Ki came to 7.51 µM.
